Data published in the SangsterLogP compilation.

Compound	logP
O=C1c2c(O)cccc2C(=CNc2ccc(O)cc2)c2cccc(O)c21	4.01
O=C1c2c(O)cccc2C(=CNc2ccc3c(c2)OCO3)c2cccc(O)c21	4.74
O=C1c2c(O)cccc2C(=CNc2ccc(F)cc2)c2cccc(O)c21	4.64
COc1ccc(NC=C2c3cccc(O)c3C(=O)c3c(O)cccc32)cc1	4.9
O=C1c2c(O)cccc2C(=CNc2ccc([N+](=O)[O-])cc2)c2cccc(O)c21	4.7
O=C1c2c(O)cccc2C(=CNc2ccc(Br)cc2)c2cccc(O)c21	5.19
CNC=C1c2cccc(O)c2C(=O)c2c(O)cccc21	3.55
COc1ccc(NC=C2c3cccc(O)c3C(=O)c3c(O)cccc32)cc1OC	4.37
O=C1c2c(O)cccc2C(=CNc2ccc(Cl)cc2)c2cccc(O)c21	5.06

More lines, now with the values ahead:

logP	Compound
4.37	COc1ccccc1NC=C1c2cccc(O)c2C(=O)c2c(O)cccc21
4.23	O=C1c2c(O)cccc2C(=CNCc2ccccc2)c2cccc(O)c21
5.07	CN(C=C1c2cccc(O)c2C(=O)c2c(O)cccc21)c1ccccc1
4.96	O=C1c2c(O)cccc2C(=CNc2ccccc2)c2cccc(O)c21
